Reference: PubChem BioAssay AID330 (DTP/NCI, 2004)
Where “and” joins values, the source holds several entries; their conditions need not be identical. Equal entries are not always repeated. Toxic doses and inconclusive results are not listed.

System: P388 leukemia ip, CD2F1 mice, survival T/C
Assay: NCI In Vivo Anticancer Drug Screen. Data for tumor model P388 Leukemia (intraperitoneal) in CD2F1 (CDF1) mice
Conditions: endpoint: median survival time, higher = longer survival
Summary of the method: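 Mice carrying the transplanted tumor received test compound or vehicle. Survival was recorded in each group, and the value is the treated-group measurement divided by that of the vehicle-treated control group.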

[1] = dose: 50.0 mg/kg/injection, schedule: Q01DX009 (ip), vehicle: saline
[2] = dose: 100.0 mg/kg/injection, schedule: Q01DX009 (ip), vehicle: saline
[3] = dose: 25.0 mg/kg/injection, schedule: Q01DX009 (ip), vehicle: saline
[4] = dose: 50.0 mg/kg/injection, schedule: Q01DX005 (ip), vehicle: saline with Tween-80
[5] = dose: 100.0 mg/kg/injection, schedule: Q01DX005 (ip), vehicle: saline with Tween-80
[6] = dose: 25.0 mg/kg/injection, schedule: Q04DX003 (ip), vehicle: saline with Tween-80
[7] = dose: 50.0 mg/kg/injection, schedule: Q04DX003 (ip), vehicle: saline with Tween-80
[8] = dose: 60.0 mg/kg/injection, schedule: Q01DX005 (ip), vehicle: saline with Tween-80
[9] = dose: 120.0 mg/kg/injection, schedule: Q01DX005 (ip), vehicle: saline with Tween-80
[10] = dose: 50.0 mg/kg/injection, schedule: Q01DX009 (ip), vehicle: saline with Tween-80
[11] = dose: 100.0 mg/kg/injection, schedule: Q01DX009 (ip), vehicle: saline with Tween-80
[12] = dose: 240.0 mg/kg/injection, schedule: Q01DX005 (ip), vehicle: saline with Tween-80

Cc1nc2ccccc2c(=O)n1/N=C1/C(=O)Nc2ccc(Br)cc21
T/C (dose: 12.5 mg/kg/injection, schedule: Q01DX005 (ip), vehicle: Klucel (hydroxypropylcellulose) (HPC)): 96 % of control | T/C (dose: 25.0 mg/kg/injection, schedule: Q01DX005 (ip), vehicle: Klucel (hydroxypropylcellulose) (HPC)): 96 % of control | T/C (dose: 50.0 mg/kg/injection, schedule: Q01DX005 (ip), vehicle: Klucel (hydroxypropylcellulose) (HPC)): 88 % of control and 90 % of control | T/C (dose: 100.0 mg/kg/injection, schedule: Q01DX005 (ip), vehicle: Klucel (hydroxypropylcellulose) (HPC)): 91 % of control | T/C (dose: 200.0 mg/kg/injection, schedule: Q01DX005 (ip), vehicle: Klucel (hydroxypropylcellulose) (HPC)): 104 % of control

C#CC(C)OC (configuration not stated)
T/C [1]: 96 % of control | T/C [2]: 90 % of control | T/C (dose: 200.0 mg/kg/injection, schedule: Q01DX009 (ip), vehicle: saline): 86 % of control

O=c1c2cc(Cl)cc(Cl)c2nc2n1S(=O)(=O)c1ccccc1N2c1ccccc1
T/C (dose: 100.0 mg/kg/injection, schedule: Q01DX001 (ip), vehicle: saline with Tween-80): 94 % of control | T/C (dose: 200.0 mg/kg/injection, schedule: Q01DX001 (ip), vehicle: saline with Tween-80): 91 % of control | T/C (dose: 400.0 mg/kg/injection, schedule: Q01DX001 (ip), vehicle: saline with Tween-80): 95 % of control

CC1(C)NC(C(=O)O)Cc2c1[nH]c1ccccc21 (configuration not stated)
T/C [3]: 102 % of control | T/C [1]: 91 % of control | T/C [2]: 94 % of control

NC(CS(=O)Cc1ccccc1)C(=O)O (configuration not stated)
T/C [4]: 95 % of control | T/C [5]: 102 % of control

CCCCCCC([Se]C)C(O)(CCC)CCC (configuration not stated)
T/C [6]: 100 % of control | T/C [7]: 100 % of control | T/C (dose: 100.0 mg/kg/injection, schedule: Q04DX003 (ip), vehicle: saline with Tween-80): 91 % of control

NNC(=S)Nc1ccccc1
T/C (dose: 1.25 mg/kg/injection, schedule: Q01DX009 (ip), vehicle: saline with Tween-80): 104 % of control | T/C (dose: 2.5 mg/kg/injection, schedule: Q01DX009 (ip), vehicle: saline with Tween-80): 100 % of control | T/C (dose: 5.0 mg/kg/injection, schedule: Q01DX009 (ip), vehicle: saline with Tween-80): 95 % of control

Cc1nn(C)c(=O)c(N)c1-c1cc(-c2ccc(Cl)cc2)n[nH]1
T/C [8]: 89 % of control | T/C [9]: 88 % of control

CC1=C(C(=O)Nc2ccccc2)C(c2ccccc2)C(C(=O)Nc2ccccc2)=C(C)N1
T/C (dose: 100.0 mg/kg/injection, schedule: Q04DX002 (ip), vehicle: saline with Tween-80): 95 % of control | T/C (dose: 200.0 mg/kg/injection, schedule: Q04DX002 (ip), vehicle: saline with Tween-80): 94 % of control | T/C (dose: 400.0 mg/kg/injection, schedule: Q04DX002 (ip), vehicle: saline with Tween-80): 94 % of control

O=C1OC(c2ccccc2)(c2ccccc2)c2cc3c(cc21)C(=O)OC3(c1ccccc1)c1ccccc1
T/C (dose: 50.0 mg/kg/injection, schedule: Q04DX002 (ip), vehicle: saline): 102 % of control | T/C (dose: 100.0 mg/kg/injection, schedule: Q04DX002 (ip), vehicle: saline): 100 % of control | T/C (dose: 200.0 mg/kg/injection, schedule: Q04DX002 (ip), vehicle: saline): 98 % of control

OCc1ccc2c(c1)CCC2
T/C (dose: 50.0 mg/kg/injection, schedule: Q01DX009 (ip), vehicle: other): 100 % of control

C[C@@]12CCCC1=[N+]1CCc3ccccc3[C@@H]1CC2=O
T/C (dose: 100.0 mg/kg/injection, schedule: Q04DX002 (ip), vehicle: Klucel (hydroxypropylcellulose) (HPC)): 101 % of control | T/C (dose: 200.0 mg/kg/injection, schedule: Q04DX002 (ip), vehicle: Klucel (hydroxypropylcellulose) (HPC)): 102 % of control

Cc1ccc2c(c1)C(=O)n1cccc1C(O)N2 (configuration not stated)
T/C (dose: 0.1 mg/kg/injection, schedule: Q01DX005 (ip), vehicle: water): 100 % of control | T/C (dose: 0.2 mg/kg/injection, schedule: Q01DX005 (ip), vehicle: water): 99 % of control | T/C (dose: 0.4 mg/kg/injection, schedule: Q01DX005 (ip), vehicle: water): 99 % of control | T/C (dose: 0.8 mg/kg/injection, schedule: Q01DX005 (ip), vehicle: water): 98 % of control | T/C (dose: 1.6 mg/kg/injection, schedule: Q01DX005 (ip), vehicle: water): 89 % of control | T/C (dose: 5.0 mg/kg/injection, schedule: Q01DX005 (ip), vehicle: distilled water + Tween-80): 98 % of control | T/C (dose: 10.0 mg/kg/injection, schedule: Q01DX005 (ip), vehicle: distilled water + Tween-80): 95 % of control | T/C (dose: 20.0 mg/kg/injection, schedule: Q01DX005 (ip), vehicle: distilled water + Tween-80): 92 % of control | T/C (dose: 40.0 mg/kg/injection, schedule: Q01DX005 (ip), vehicle: distilled water + Tween-80): 98 % of control | T/C (dose: 80.0 mg/kg/injection, schedule: Q01DX005 (ip), vehicle: distilled water + Tween-80): 92 % of control

[CH3][Sn]([CH3])([Cl])[c]1cc[c]([Sn]([CH3])([CH3])[Cl])cc1
T/C (dose: 0.19 mg/kg/injection, schedule: Q01DX005 (ip), vehicle: suspension in saline): 122 % of control | T/C (dose: 0.39 mg/kg/injection, schedule: Q01DX005 (ip), vehicle: suspension in saline): 115 % of control | T/C (dose: 0.79 mg/kg/injection, schedule: Q01DX005 (ip), vehicle: saline): 160 % of control | T/C (dose: 3.12 mg/kg/injection, schedule: Q01DX005 (ip), vehicle: suspension in saline): 154 % of control

COc1ccc(C#N)cc1OC
T/C (dose: 6.25 mg/kg/injection, schedule: Q01DX009 (ip), vehicle: saline): 99 % of control | T/C (dose: 12.5 mg/kg/injection, schedule: Q01DX009 (ip), vehicle: saline): 108 % of control | T/C [3]: 92 % of control | T/C [1]: 92 % of control

N#Cc1c(NC(=O)Nc2ccc(F)cc2F)sc(=S)c2c1CCCC2
T/C [10]: 100 % of control | T/C [11]: 99 % of control

O=[N+]([O-])/C=C/c1c(Cl)cccc1Cl
T/C (dose: 12.5 mg/kg/injection, schedule: Q04DX003 (ip), vehicle: saline with Tween-80): 99 % of control | T/C [6]: 100 % of control | T/C [7]: 100 % of control

N#Cc1nnn2c1nc(N)c1c(Cl)cccc12
T/C [8]: 98 % of control | T/C [9]: 100 % of control | T/C [12]: 100 % of control

Oc1ccc2ccccc2c1N=Nc1nn[nH]n1
T/C [4]: 99 % of control | T/C [5]: 106 % of control

COc1nc(NC2OC(COC(C)=O)C(OC(C)=O)C(OC(C)=O)C2OC(C)=O)c(N=C(C)C(C)=O)c(=O)n1C (configuration not stated)
T/C [8]: 99 % of control | T/C [9]: 95 % of control | T/C [12]: 95 % of control

N#Cc1cc([N+](=O)[O-])cnc1Sc1ncccn1
T/C (dose: 6.25 mg/kg/injection, schedule: Q01DX009 (ip), vehicle: Klucel (hydroxypropylcellulose) (HPC)): 108 % of control | T/C (dose: 12.5 mg/kg/injection, schedule: Q01DX009 (ip), vehicle: Klucel (hydroxypropylcellulose) (HPC)): 104 % of control | T/C (dose: 25.0 mg/kg/injection, schedule: Q01DX009 (ip), vehicle: Klucel (hydroxypropylcellulose) (HPC)): 90 % of control

O=C(Nc1nccs1)C(F)(F)F
T/C [10]: 104 % of control | T/C [11]: 104 % of control | T/C (dose: 200.0 mg/kg/injection, schedule: Q01DX009 (ip), vehicle: saline with Tween-80): 99 % of control | T/C (dose: 400.0 mg/kg/injection, schedule: Q01DX009 (ip), vehicle: saline with Tween-80): 108 % of control

Cc1ccc(N=CN(C)C=Nc2ccc(C)cc2C)c(C)c1
T/C (dose: 50.0 mg/kg/injection, schedule: Q01DX009 (ip), vehicle: suspension in saline): 104 % of control | T/C (dose: 100.0 mg/kg/injection, schedule: Q01DX009 (ip), vehicle: suspension in saline): 113 % of control | T/C (dose: 200.0 mg/kg/injection, schedule: Q01DX009 (ip), vehicle: suspension in saline): 107 % of control

COc1ccccc1NC(=O)C1=C(C)NC(C)=C(C(=O)Nc2ccccc2OC)C1c1cccc([N+](=O)[O-])c1
T/C (dose: 60.0 mg/kg/injection, schedule: Q01DX005 (ip), vehicle: Klucel (hydroxypropylcellulose) (HPC)): 92 % of control | T/C (dose: 120.0 mg/kg/injection, schedule: Q01DX005 (ip), vehicle: Klucel (hydroxypropylcellulose) (HPC)): 88 % of control

N#CC(C(=O)C(=O)Nc1ccccc1)c1c(Cl)cccc1Cl (configuration not stated)
T/C [8]: 98 % of control | T/C [9]: 104 % of control | T/C [12]: 98 % of control

CN1c2ccccc2Sc2cc(N3c4ccccc4Sc4ccc(C(F)(F)F)cc43)c(C(F)(F)F)cc21
T/C (dose: 100.0 mg/kg/injection, schedule: Q04DX003 (ip), vehicle: Klucel (hydroxypropylcellulose) (HPC)): 101 % of control | T/C (dose: 200.0 mg/kg/injection, schedule: Q04DX003 (ip), vehicle: Klucel (hydroxypropylcellulose) (HPC)): 100 % of control | T/C (dose: 400.0 mg/kg/injection, schedule: Q04DX003 (ip), vehicle: Klucel (hydroxypropylcellulose) (HPC)): 98 % of control
